Assay results: patent publication US20110229411A1, “USE OF P2X7 PATHWAY FOR ASSESSING THE SENSITIVITY OF A SUBJECT TO A CANCER TREATMENT” (INSTITUT GUSTAVE ROUSSY, priority 2008, published 2011)

Legend:
MCA205 cells = assay: Cell death induction for vaccination, FACS analysis of Annexin V+ DAPI+ cells; assay type: cell-based, mouse; settings: MCA205, 1 μM mitoxantrone, 24 hours
Protocol: Anti cancer vaccination was assessed using a previously described setting (Casares et al., 2005; Obeid et al., 2007). CT26 cells were cultured with either PBS or 20 μM doxorubicin, and MCA205 with either PBS or 1 μM mitoxantrone for 24 h. All these treatments led to ˜50% of Annexin V^+ DAPI^+ cells, as assessed by FACS analysis at 24 hours. After careful washes, cells were resuspended in sterile PBS. CT26 cells were incubated in the presence or in the absence of antimycin A and deoxyglucose (2 μg/ml and 30 mM, respectively) for 20 min, or in the presence or in the absence of Oxi-ATP ([…]). After 3 washes, 3×10^6 dying CT26 cells (or 3×10^5 MCA205 cells) were injected subcutaneously into the left flank of mice. In some experiments, 100 μg of IL-1Ra (Anakinra) was injected along with the dying cells. Seven days later, mice were rechallenged into the right flank with 5×10^5 live CT26 cells (or, alternatively, 3.10^4 live MCA205 cells). Tumor growth was then monitored weekly.

EL4 thymoma tumors = assay: Chemotherapy of EL4 tumors established in mice; assay type: in vivo
Protocol: FIG. 17. The anti-cancer activity of oxaliplatin depends on P2X7 and the NALP3 inflammasome. FIG. 17a,b,c. Therapeutic efficacy of oxaliplatin on established tumors depends on the integrity of the immune system on the P2X7/NALP3/casp-1 axis. EL4 thymoma tumors were established in syngenic mice bearing the indicated genotypes (a-c) or injected with anti-CD8 antibody (a). When the tumor reached 70-90mm^2 in size, mice were either left untreated or were treated with oxaliplatin. Each treatment group included 5-6 mice (X±SEM), and each experiment was repeated three times with similar results. * p<0.05. d. Caspase 1 is required for the immune response promoted by oxaliplatin chemotherapy. EG7 tumors established in the thigh were treated with one systemic injection of oxaliplatin. Inguinal lymph node cells were harvested 5 days later, and the gangliocytes were restimulated in vitro. IFNγ secretion was assessed by ELISA. Results (means of triplicates ±SEM, n=3) are representative of one typical experiment out of three. ^*P<0.01. FIG. 17d. The efficacy of anthracyclines against established colon cancer is dependent on IL-1β. CT26 tumors established for 10 days in WT mice were treated with one local injection of doxorubicin in the absence or presence of neutralizing anti-IL-1β Ab (n=10/group, *p<0.05). FIG. 17e. A single-nucleotide polymorphism (SNP) in P2X7 (rs3751143) affects the long-term efficacy of conventional anti-cancer therapy in breast cancer patients. Comparative Kaplan-Meier estimates of time to metastasis in two groups of patients bearing the normal (Glu496Glu) or loss-of-function (Glu496Ala) P2X7 alleles. The time to metastatic progression was analyzed in 225 women with non-metastatic breast cancer who received adjuvant chemotherapy with anthracylines.
Wild type or loss-of-function C57BL/6 mice were injected s.c. with 10^6 EL4 cells into the right flank. Alternatively, wild-type BALB/c mice were injected with 5.10^5 CT26 cells into the right flank. Mice were then randomly assigned to treatment groups of 4-6 mice each. The tumor surface was monitored using a caliper. When tumor size reached 70-90 mm^2 for EL4 (9-12 days post-injection) or 60-80 mm^2 for CT26 (8-10 days post-injection), mice received chemotherapy (Apetoh et al., 2007). Mice bearing EL4 tumors were injected with oxaliplatin (5 mg/kg i.p), while mice bearing CT26 tumors were injected with doxorubicin (50 μl, 4 mM i.t). In some experiments, CT26 tumor-bearing mice received two injections (on day 0 and day 2 after the commencement of chemotherapeutic treatment) of IL-1Ra (McIntyre et al., 1991) (100 μg), anti-IL-1 antibody (100 μg) or hamster serum as a control.

EG7 cells = assay: ATP assays (extracellular and intracellular ATP, luciferin-luciferase) on oxaliplatin-treated tumor cells; assay type: cell-based, mouse
Protocol: FIG. 1: ATP release by dying tumor cells dictates the immunogenicity of cell death. FIG. 1a. Accumulation of ATP in the extracellular space following exposure of tumor cells to chemotherapy. EG7 were treated with oxaliplatin, and ATP release into the supernatant was monitored. FIG. 1b. […] EG7 were treated with oxaliplatin for 24 hours and subsequently with antimycin A and deoxyglucose (A/D) for 20 min. Data (means±SEM of triplicates) of one representative experiment out of three are depicted. FIG. 1c. Failure of dying tumor cells depleted from ATP to elicit an OVA specific immune response. Live or oxaliplatin-treated EG7 cells were injected into the footpad of C57B1/6 mice. Five days later, popliteal lymph node cells were recovered and restimulated with the OVA holoprotein for 72 hours before quantification of IFNγ secretion. The levels of IFNγ secretion between mice immunized with ATP-depleted or not depleted EG7 were compared in three independent experiments. FIG. 1d. Inhibition of purinergic receptors with oxidized ATP (oxiATP) abolishes T cell priming by oxaliplatin-treated EG7 cells. […] Five days later, the local immune response was measured as in (a). […]
Plates were read in a Fluostar luminometer (BMG Labtech).

OT-1 CD8+ T cells = assay: In vitro stimulation of OT-1 cells by BM-DC loaded with oxaliplatin-treated EG7; assay type: cell-based, mouse; settings: rIL-1β 100 ng/ml or IL-12 10 ng/ml added to cocultures
Protocol: FIG. 15. IL-1β-dependent CTL priming by dying tumor cells in vitro and in vivo. FIG. 15a. MyD88 is required at the level of the host but not that of the APC. DC from WT mice were first loaded with antigen (OVA holoprotein with C/P adjuvant, live or oxaliplatin-treated EG7 cells) and then injected into the footpad of into WT or MyD88^−/− recipients (n=6 mice/group). Five days later, the local immune response was measured as in FIG. 2d,e. Results of one typical experiment out of three are depicted. FIG. 15b. Casp-1 and IL-1β-dependent OT-I priming in vitro. The differentiation of IFNγ producing CD8^+ OT-1 cells was induced by incubating naïve OVA-specific TCR transgenic OT-1 lymphocytes with syngeneic BM-DC (derived from WT or Casp-1^−/− mice) that were loaded with oxaliplatin-treated EG7 for 2 days in vitro. […] Exogenous addition of rIL-1β (100 ng/ml) or IL-12 (10 ng/ml) to cocultures of Casp-1^−/− DC loaded with dying tumor cells and incubated with OT1 restored T cell priming. […] FIG. 15c. Specific and direct polarizing effects of IL-1β on T lymphocytes in vitro. Purified CD3^+ CD8^+ T cells derived from naïve WT mice were stimulated with anti-CD3 and anti-CD28 mAb for 5 days in the presence of the indicated cytokines (10 ng/ml for IL-12p70, 100 ng/ml for IL-1β, IL-6 and TNFα) -and IFNγ production was measured as in FIG. 3b. FIG. 15d. […]

[1] = system: T cell priming for IFNγ production; assay: Priming assay: dying EG7 cells injected into the footpad, IFNγ secretion of restimulated popliteal lymph node cells; assay type: in vivo, mice; settings: cytokine co-injected with oxaliplatin-treated EG7: rIL-1β 250 ng, rIL-12 50 ng, rIL-6 250 ng per footpad
Protocol: 1.10^6 CT26, EG7, or B16F10 cells were either left untreated or treated with doxorubicin (20 μM) or oxaliplatin (5 μg/ml) for 24 h. Cells were then injected into the footpad of syngenic mice. In some experiments, 20 or 100 μg of IL-1Ra (Anakinra) or 250 ng of recombinant murine IL-1β (or 250 ng of IL-6 or 50 ng of IL-12) was injected along with dying tumor cells into the footpad of mice. Alternatively, DC were cocultured with EG7 cells for 2 hours, followed by the purification of CD11c^+ cells with anti-CD11c mAb coupled to magnetic beads (Miltenyi Biotec, Paris, France) and injection of these purified DC into the footpad. Five days later, gangliocytes from popliteal lymph nodes were harvested, seeded in 96 U-well plates (3.10^5 cells per well), and restimulated with 1 mg/ml OVA protein. Restimulation with MCA205 or CT26 cells was performed using 3×10^4 tumor cells killed by 5 min heating at 42° C. followed by 1 cycle of freezing/thawing in liquid nitrogen. For B16F10, restimulation was achieved using gp100 peptide as previously described (Overwijk et al., 1998). As a positive control of T cell priming, mice were injected with OVA protein (1 mg) (or gp100 for B16F10) and the association of CpG (10 μg) and Poly I:C (5 μg). For CT26 priming experiments, cell lysate plus LPS (250 ng) was used as a positive control. Supernatants were harvested 72 hours later, and IFNγ secretion was assessed by ELISA. Alternatively, cells were stimulated with PMA (10 ng/ml) and ionomycin (1 μg/ml) for 1 h, followed by the addition of brefeldin A (10 μg/ml for 6 h at 37° C.) (Apetoh et al., 2007), surface staining with Abs specific for CD3, CD4 or CD8, fixation and permeabilization (Cytofix/cytoperm kit) and then labeled with antibodies specific for IFNγ. Immunofluorescence was analyzed on a LSRII flow cytometer (BD Biosciences) with FACSDiva software.

O=C1c2c(O)ccc(O)c2C(=O)c2c(NCCNCCO)ccc(NCCNCCO)c21 [mitoxantrone]
Annexin V+ DAPI+ cells (MCA205 cells): ~50%

O=C1[O][Pt]2([NH][C@@H]3CCCC[C@H]3[NH]2)[O]C1=O [oxaliplatin]
response of EL4 tumors to oxaliplatin (EL4 thymoma tumors; Casp1−/− mice versus WT controls): responded less efficiently | therapeutic efficacy on established EL4 tumors (EL4 thymoma tumors; IfnγR1−/− mice): lost its therapeutic efficacy | therapeutic efficacy on established EL4 tumors (EL4 thymoma tumors; Il-12Rβ2−/− mice (and WT)): remained efficient | response of EL4 tumors to oxaliplatin (EL4 thymoma tumors; Nalp3−/− mice versus WT controls): responded less efficiently | response of EL4 tumors to oxaliplatin (EL4 thymoma tumors; P2X7−/− mice versus WT controls): responded less efficiently | therapeutic efficacy on established EL4 tumors (EL4 thymoma tumors; T and B cell-deficient rag-2−/− mice): lost its therapeutic efficacy | therapeutic efficacy on established EL4 tumors (EL4 thymoma tumors; T cell-deficient nu/nu mice): lost its therapeutic efficacy | control of EL4 tumor growth (EL4 thymoma tumors; immunocompetent WT mice, oxaliplatin 5 mg/kg i.p.): efficient in controlling EL4 tumor growth | therapeutic efficacy on established EL4 tumors (EL4 thymoma tumors; mice depleted from CD8+ T cells): lost its therapeutic efficacy | intracellular ATP (EG7 cells; EG7 treated with oxaliplatin for 24 hours): Decrease of intracellular ATP | release of ATP into the supernatant (EG7 cells; EL4 thymomas and EG7 cells, oxaliplatin 5 μg/ml, 0-24 hours): induced the release of ATP

B1: IL-12: recombinant mouse IL-12 from R&D Systems (protein, UniProt P43431 23-215; P43432 23-335, looked up)
Interleukin-12 subunit alpha: RVIPVSGPARCLSQSRNLLKTTDDMVKTAREKLKHYSCTAEDIDHEDITRDQTSTLKTCLPLELHKNESCLATRETSSTTRGSCLPPQKTSLMMTLCLGSIYEDLKMYQTEFQAINAALQNHNHQQIILDKGMLVAIDELMQSLNHNGETLRQKPPVGEADPYRVKMKLCILLHAFSTRVVTINRVMGYLSSA
Interleukin-12 subunit beta: MWELEKDVYVVEVDWTPDAPGETVNLTCDTPEEDDITWTSDQRHGVIGSGKTLTITVKEFLDAGQYTCHKGGETLSHSHLLLHKKENGIWSTEILKNFKNKTFLKCEAPNYSGRFTCSWLVQRNMDLKFNIKSSSSSPDSRAVTCGMASLSAEKVTLDQRDYEKYSVSCQEDVTCPTAEETLPIELALEARQQNKYENYSTSFFIRDIIKPDPPKNLQMKPLKNSQVEVSWEYPDSWSTPHSYFSLKFFVRIQRKKEKMKETEEGCNQKGAFLVEKTSTEVQCKGGNVCVQAQDRYYNSSCSKWACVPCRVRS
priming capacity of Casp-1−/− DC for OT-1 cells (IFNγ) (OT-1 CD8+ T cells): restored the priming capacity | T cell priming in Nalp3−/− or Casp1−/− mice [1]: restored deficient T cell priming
